The results in this text go back to US10494356B2, “Compound promoting osteoblast differentiation and inhibiting adipocyte differentiation, preparation method thereof and application thereof” (SUNG KYUN BIOTECH CO., LTD., priority 2016, dated 2019).

Holding throughout (format): cell-based, mouse
Experiment [1] relates to C3H10T1/2 cells. In words: ALP (alkaline phosphatase) production during differentiation of C3H10T1/2 cells into osteoblasts (ALP staining, -b value). How it is done:
The C3H10T1/2 cells derived from mouse embryo fibroblasts are pluripotent stem cells that can differentiate into various cell lineages including osteoblasts. Because one of the characteristics of osteoblasts is the ALP (alkaline phosphatase) activity, the differentiation of the C3H10T1/2 cells into osteoblasts was measured based on the ALP activity.
The C3H10T1/2 cells were cultured with a DMEM medium supplemented with 10% FBS and 1% penicillin/streptomycin under the condition of 37° C. and 5% CO2. The C3H10T1/2 cells were cultured on a 6-well plate at a concentration of 2.5×10^4/mL with a medium containing 10 mM β-glycerophosphate and 50 μg/mL ascorbic acid for osteocyte differentiation. The differentiation was performed for 9 days after adding the NK11 compound at 0.1, 0.5, 1 and 5 μM, while replacing the medium with 3-day intervals. Then, ALP staining was performed using 5-bromo-4-chloro-3-indolyl phosphate/nitro blue tetrazolium (BCIP/NBT).
Then, the Lab color space was measured using the image files of the ALP-stained well plate.

In experiment [2] the test system is C3H10T1/2 cells. In words: Fat production during differentiation of C3H10T1/2 cells into adipocytes (Oil Red O staining). The conditions noted are these: for effect of inhibiting adipocyte differentiation: Test Example 3: NK11 at 1 μM, other compounds at 5 μM, vs negative control group (DMSO). On the procedure: After plating the cells on a 6-well plate in the same manner as in Test Example 1, they were cultured for 9 days in a medium containing 1 μM dexamethasone, 5 μg/mL insulin and 1 μM troglitazone for adipocyte differentiation after adding the NK11 compound at 0.1, 0.5, 1 and 5 μM. After completion of differentiation, the medium was removed and the cells were fixed with 10% neutral buffered formalin and stained with 0.5% Oil Red O solution.
Then, the Lab color space was measured using the image files of the Oil Red O-stained well plate.

In experiment [3] the test system is PPARγ, aP2 and CD36 mRNAs in C3H10T1/2 cells. In words: mRNA expression of adipocyte differentiation factors PPARγ, aP2 and CD36 (real-time PCR). An excerpt: (§1) The mRNA expression levels of the osteoblast differentiation factor and the adipocyte differentiation factor in the cells treated with the NK11 compound were investigated.
(§2) First, the expression level of the osteoblast differentiation factor ALP was investigated while differentiating the C3H10T1/2 cells into osteoblasts in the same manner as in […]. Also, the expression levels of the adipocyte differentiation factors PPARγ, aP2 and CD36 compound were investigated while differentiating the C3H10T1/2 cells into adipocytes in the same manner as in Test Example 1.
(§3) Total RNA was extracted using TRIzol (Invitrogen). 1 μg of the isolated RNA was synthesized into cDNA by adding random primers, dNTP and PrimeScript™ reverse transcriptase (Takara). The synthesized cDNA was subjected to real-time PCR using primers and SYBR Premix Ex Taq (Takara).
In general terms: Real-time PCR tracks product formation cycle by cycle.

In experiment [4] the test system is ALP mRNA in C3H10T1/2 cells. In words: mRNA expression of osteoblast differentiation factor ALP (real-time PCR). As to conditions: for expression level of ALP, osteogenesis marker (mRNA): Test Example 3: NK11 at 1 μM, other compounds at 5 μM.
Excerpt: as §1, §2, §3

Where [5] appears, read: 0.1, 0.5, 1 and 5 μM, 9 days differentiation, compared to DMSO-treated negative control.
The mark [6] stands for this setting: Test Example 3: NK11 at 1 μM, other compounds at 5 μM, vs negative control group (DMSO).
Setting [7] is: Test Example 3: NK11 at 1 μM, other compounds at 5 μM.

For `COc1cc([C@@H]2O[C@@H](c3cc(OC)c(O)c(OC)c3)[C@H](COC(=O)/C=C/c3ccc(O)cc3)[C@H]2COC(=O)/C=C\c2ccc(O)cc2)cc(OC)c1O` [Chemical Formula 8], in the experiment with C3H10T1/2 cells [1] (setting [5]), the ALP production result is reported as “increased ALP production in a concentration-dependent manner”. For the same molecule, the “fat production by adipocytes (Oil Red O)” value with C3H10T1/2 cells [2] (setting [5]) is listed as “inhibited fat production by adipocytes in a concentration-dependent manner”. Further, the “expression levels of the adipocyte-related genes CD36, aP2 and PPARγ” value (“expression levels” below) in experiment [3] (0.1, 0.5, 1 and 5 μM, mRNA, real-time PCR) is “decreased the expression levels of the adipocyte-related genes CD36, aP2 and PPARγ in a concentration-dependent manner”. For the same molecule, the “expression of ALP, osteogenesis marker (mRNA)” value in experiment [4] (at the concentration of 5 μM) was “expressed highly”.
In the case of `COc1cc([C@@H]2O[C@@H](c3cc(OC)c(O)c(OC)c3)[C@H](COC(=O)/C=C/c3ccccc3)[C@H]2COC(=O)/C=C/c2ccccc2)cc(OC)c1O` [Chemical Formula 9], the ALP production entry with C3H10T1/2 cells [1] (setting [6]) is on record as “significant effect of promoting ALP production although slightly lower than that of NK11”. Also, in the experiment on C3H10T1/2 cells [1] (Test Example 3: compound at 5 μM vs NK11 at 1 μM), the “ALP production as compared to the NK11 compound” value was “about 2 times”. For the same molecule, the “effect of inhibiting adipocyte differentiation” value with C3H10T1/2 cells [2] is listed as “showed the effect of inhibiting adipocyte differentiation as the NK11 compound”. In addition, the “expression levels” value in experiment [3] (setting [7]) is “decreased”. In addition, in experiment [4], the “expression level of ALP, osteogenesis marker (mRNA)” value (shortened to “expression level of ALP”) is recorded as “high”.
Regarding `COc1cc([C@@H]2O[C@@H](c3cc(OC)c(O)c(OC)c3)[C@H](CO)[C@H]2CO)cc(OC)c1O` [Chemical Formula 10], the ALP production entry in the experiment on C3H10T1/2 cells [1] (setting [6]) is on record as “no difference in ALP production from the negative control group (DMSO)”. Also, the “effect of inhibiting adipocyte differentiation” value in the experiment with C3H10T1/2 cells [2] is given as “no difference in the effect of inhibiting adipocyte differentiation from the negative control group (DMSO)”. Moreover, the “expression levels” value in experiment [3] (setting [7]) is “no effect”. Besides, the “expression level of ALP” value in experiment [4] is “no effect”.
For the molecule `COCOc1c(OC)cc([C@@H]2O[C@@H](c3cc(OC)c(OCOC)c(OC)c3)[C@H](CO)[C@H]2CO)cc1OC` [Chemical Formula 4], the ALP production result in the experiment with C3H10T1/2 cells [1] (setting [6]) is listed as “no difference in ALP production from the negative control group (DMSO)”. Further, the “effect of inhibiting adipocyte differentiation” value in the experiment on C3H10T1/2 cells [2] is on record as “no difference in the effect of inhibiting adipocyte differentiation from the negative control group (DMSO)”. Besides, the “expression levels” value in experiment [3] (setting [7]) is reported as “no effect”. The “expression level of ALP” value in experiment [4] is given as “no effect”.
Take `COc1cc([C@@H]2O[C@@H](c3cc(OC)c(O)c(OC)c3)[C@H](COC(C)=O)[C@H]2COC(C)=O)cc(OC)c1O` [Chemical Formula 11]: in the experiment on C3H10T1/2 cells [1] (setting [6]), the ALP production entry is “no difference in ALP production from the negative control group (DMSO)”. In addition, the “effect of inhibiting adipocyte differentiation” value in the experiment on C3H10T1/2 cells [2] is listed as “no difference in the effect of inhibiting adipocyte differentiation from the negative control group (DMSO)”. For the same molecule, the “expression levels” value in experiment [3] (setting [7]) is on record as “no effect”. The “expression level of ALP” value in experiment [4] is recorded as “no effect”.
Regarding `COC(=O)[C@@H]1[C@@H](C(=O)OC)[C@H](c2cc(OC)c(O)c(OC)c2)O[C@H]1c1cc(OC)c(O)c(OC)c1` [Chemical Formula 2], in the experiment with C3H10T1/2 cells [1] (setting [6]), the ALP production result is given as “no difference in ALP production from the negative control group (DMSO)”. Also, the “effect of inhibiting adipocyte differentiation” value with C3H10T1/2 cells [2] is given as “no difference in the effect of inhibiting adipocyte differentiation from the negative control group (DMSO)”. Also, the “expression levels” value in experiment [3] (setting [7]) was “no effect”. Moreover, the “expression level of ALP” value in experiment [4] is “no effect”.
